Data reported in patent US20250145665A1, “MACROCYCLIC PEPTIDES USEFUL AS MODULATORS OF TNF ALPHA” (Bristol-Myers Squibb Company, priority 2023, published 2025).
Like-named read-outs stand apart in the source and are kept apart here. Starred links: 1 amine or outer side, 2 acyl side, 3 side chain; linkers in the order of their positions; H or OH if unused. Positions of bridges follow the written chain, without caps; N, C: chain ends. Non-standard residues stand in square brackets, D forms with d. Residues, ends and D or L forms follow the SMILES beside them. *: point of attachment. Bip(4'-NHCO-C6H4-3-CH2COOH) = N[C@@H](Cc1ccc(-c2ccc(NC(=O)c3cccc(CC(=O)O)c3)cc2)cc1)C(=O)O; Bip(4'-NHCO-C6H4-4-CH2COOH) = N[C@@H](Cc1ccc(-c2ccc(NC(=O)c3ccc(CC(=O)O)cc3)cc2)cc1)C(=O)O; dArg(Nω-CH2C6H4-3-CH2Gua) = N=C(N)NCc1cccc(CNC(=N)NCCC[C@@H](N)C(=O)O)c1; Bip(4'-NH) = O=C([C@H](Cc1ccc(-c2ccc(N[*:3])cc2)cc1)N[*:1])[*:2]; Indazole3carbonyl(1-CH2COOH) = O=C(O)Cn1nc(C(=O)*)c2ccccc21; Bip(4'-COOH) = N[C@@H](Cc1ccc(-c2ccc(C(=O)O)cc2)cc1)C(=O)O; dArg(ω-Bn) = N=C(NCCC[C@@H](N)C(=O)O)NCc1ccccc1; Ala(morpholin-4-yl) = N[C@@H](CN1CCOCC1)C(=O)O; Benzoyl(3-OCH2COOH) = O=C(O)COc1cccc(C(=O)*)c1; Bip = N[C@@H](Cc1ccc(-c2ccccc2)cc1)C(=O)O; Cha = N[C@@H](CC1CCCCC1)C(=O)O; Tle = CC(C)(C)[C@H](N)C(=O)O; Sar = CNCC(=O)O

Biological target: TNFα (Homo sapiens, UniProt P01375)
Test: TNF-Induced HEK-Blue Assay
Type: cell-based
[1] = HEK-Blue-CD40L cells, NF-kB-driven secreted alkaline phosphatase reporter, TNFα 0.5 ng/ml, 18 h, read-out: TNF induced HEK-Blue assay IC50 value

Sequence of TNFα (P01375 77-233 limits assumed): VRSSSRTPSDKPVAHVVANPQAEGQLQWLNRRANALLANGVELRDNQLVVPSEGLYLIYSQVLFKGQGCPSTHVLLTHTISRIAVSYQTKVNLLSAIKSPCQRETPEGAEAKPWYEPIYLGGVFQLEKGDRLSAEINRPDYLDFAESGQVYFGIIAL

| Compound | IC50 [1] | IC50 |
| --- | --- | --- |
| CC(C)C[C@@H]1NC(=O)[C@H](CCCNC(=N)N)NC(=O)[C@H](C(C)C)NC(=O)[C@@H]2CCCN2C(=O)[C@H](C(C)C)NC(=O)[C@@H](CCCNC(=N)NCc2cccc(CNC(=N)N)c2)NC(=O)[C@H](CC(=O)O)NC(=O)[C@@H]2CCCN2C(=O)CN(C)C(=O)[C@H](Cc2ccc(-c3ccc(NC(=O)c4cccc(CC(=O)O)c4)cc3)cc2)NC(=O)[C@H](Cc2ccc(-c3ccccc3)cc2)NC(=O)[C@H](CN2CCOCC2)NC(=O)CSC[C@@H](C(=O)NCC(N)=O)NC1=O [Example 570] ({CH2CO}-[Ala(morpholin-4-yl)][Bip][Bip(4'-NHCO-C6H4-3-CH2COOH)][Sar]PD[dArg(Nω-CH2C6H4-3-CH2Gua)]VPVRLCG-NH2; thioether N-13) | 50 to 200 nM |  |
| CC(C)C[C@@H]1NC(=O)[C@H](CCCNC(=N)N)NC(=O)[C@H](C(C)C)NC(=O)[C@@H]2CCCN2C(=O)[C@H](C(C)C)NC(=O)[C@@H](CCCNC(=N)NCc2cccc(CNC(=N)N)c2)NC(=O)[C@H](CC(=O)O)NC(=O)[C@@H]2CCCN2C(=O)CN(C)C(=O)[C@H](Cc2ccc(-c3ccc(NC(=O)c4ccc(CC(=O)O)cc4)cc3)cc2)NC(=O)[C@H](Cc2ccc(-c3ccccc3)cc2)NC(=O)[C@H](CN2CCOCC2)NC(=O)CSC[C@@H](C(=O)NCC(N)=O)NC1=O [Example 571] ({CH2CO}-[Ala(morpholin-4-yl)][Bip][Bip(4'-NHCO-C6H4-4-CH2COOH)][Sar]PD[dArg(Nω-CH2C6H4-3-CH2Gua)]VPVRLCG-NH2; thioether N-13) | 50 to 200 nM |  |
| CC(C)C[C@@H]1NC(=O)[C@H](CCCNC(=N)N)NC(=O)[C@H](C(C)C)NC(=O)[C@@H]2CCCN2C(=O)[C@H](C(C)C)NC(=O)[C@@H](CCCNC(=N)NCc2cccc(CNC(=N)N)c2)NC(=O)[C@H](CC(=O)O)NC(=O)[C@@H]2CCCN2C(=O)CN(C)C(=O)[C@H](Cc2ccc(-c3ccc(NC(=O)c4cccc(OCC(=O)O)c4)cc3)cc2)NC(=O)[C@H](Cc2ccc(-c3ccccc3)cc2)NC(=O)[C@H](CN2CCOCC2)NC(=O)CSC[C@@H](C(=O)NCC(N)=O)NC1=O [Example 572] ({CH2CO}-[Ala(morpholin-4-yl)][Bip][Bip(4'-NH)](Benzoyl(3-OCH2COOH))[Sar]PD[dArg(Nω-CH2C6H4-3-CH2Gua)]VPVRLCG-NH2; thioether N-13) | < 50 nM |  |
| CC[C@H](C)[C@@H]1NC(=O)[C@@H](CCCNC(=N)N)NC(=O)[C@H](CC(=O)O)NC(=O)[C@@H]2CCCN2C(=O)CN(C)C(=O)[C@H](Cc2ccc(-c3ccc(NC(=O)c4cccc(OCC(=O)O)c4)cc3)cc2)NC(=O)[C@H](Cc2ccc(-c3ccc(C(=O)O)cc3)cc2)NC(=O)[C@H](CC2CCCCC2)NC(=O)CSC[C@@H](C(=O)NCC(N)=O)NC(=O)[C@H](CC(C)C)NC(=O)[C@H](Cc2cnc[nH]2)NC(=O)[C@H](C(C)C)NC(=O)[C@@H]2CCCN2C1=O [Example 573] ({CH2CO}-[Cha][Bip(4'-COOH)][Bip(4'-NH)](Benzoyl(3-OCH2COOH))[Sar]PD[dR]IPVHLCG-NH2; thioether N-13) | 50 to 200 nM |  |
| CC[C@H](C)[C@@H]1NC(=O)[C@@H](CCCNC(=N)N)NC(=O)[C@H](CC(=O)O)NC(=O)[C@@H]2CCCN2C(=O)CN(C)C(=O)[C@H](Cc2ccc(-c3ccc(NC(=O)c4cccc(OCC(=O)O)c4)cc3)cc2)NC(=O)[C@H](Cc2ccc(-c3ccc(C(=O)O)cc3)cc2)NC(=O)[C@H](C(C)(C)C)NC(=O)CSC[C@@H](C(=O)NCC(N)=O)NC(=O)[C@H](CC(C)C)NC(=O)[C@H](Cc2cnc[nH]2)NC(=O)[C@H](C(C)C)NC(=O)[C@@H]2CCCN2C1=O [Example 574] ({CH2CO}-[Tle][Bip(4'-COOH)][Bip(4'-NH)](Benzoyl(3-OCH2COOH))[Sar]PD[dR]IPVHLCG-NH2; thioether N-13) | < 50 nM |  |
| CC[C@H](C)[C@@H]1NC(=O)[C@@H](CCCNC(=N)N)NC(=O)[C@H](CC(=O)O)NC(=O)[C@@H]2CCCN2C(=O)CN(C)C(=O)[C@H](Cc2ccc(-c3ccc(NC(=O)c4cccc(CC(=O)O)c4)cc3)cc2)NC(=O)[C@H](Cc2ccc(-c3ccc(C(=O)O)cc3)cc2)NC(=O)[C@H](C(C)(C)C)NC(=O)CSC[C@@H](C(=O)NCC(N)=O)NC(=O)[C@H](CC(C)C)NC(=O)[C@H](Cc2cnc[nH]2)NC(=O)[C@H](C(C)C)NC(=O)[C@@H]2CCCN2C1=O [Example 575] ({CH2CO}-[Tle][Bip(4'-COOH)][Bip(4'-NHCO-C6H4-3-CH2COOH)][Sar]PD[dR]IPVHLCG-NH2; thioether N-13) | 50 to 200 nM |  |
| CC[C@H](C)[C@@H]1NC(=O)[C@@H](CCCNC(=N)N)NC(=O)[C@H](CC(=O)O)NC(=O)[C@@H]2CCCN2C(=O)CN(C)C(=O)[C@H](Cc2ccc(-c3ccc(NC(=O)c4ccc(CC(=O)O)cc4)cc3)cc2)NC(=O)[C@H](Cc2ccc(-c3ccc(C(=O)O)cc3)cc2)NC(=O)[C@H](C(C)(C)C)NC(=O)CSC[C@@H](C(=O)NCC(N)=O)NC(=O)[C@H](CC(C)C)NC(=O)[C@H](Cc2cnc[nH]2)NC(=O)[C@H](C(C)C)NC(=O)[C@@H]2CCCN2C1=O [Example 576] ({CH2CO}-[Tle][Bip(4'-COOH)][Bip(4'-NHCO-C6H4-4-CH2COOH)][Sar]PD[dR]IPVHLCG-NH2; thioether N-13) | 50 to 200 nM |  |
| CC[C@H](C)[C@@H]1NC(=O)[C@@H](CCCNC(=N)N)NC(=O)[C@H](CC(=O)O)NC(=O)[C@@H]2CCCN2C(=O)CN(C)C(=O)[C@H](Cc2ccc(-c3ccc(NC(=O)c4cccc(OCC(=O)O)c4)cc3)cc2)NC(=O)[C@H](Cc2ccc(-c3ccc(C(=O)O)cc3)cc2)NC(=O)[C@H](CN2CCOCC2)NC(=O)CSC[C@@H](C(=O)NCC(N)=O)NC(=O)[C@H](CC(C)C)NC(=O)[C@H](Cc2cnc[nH]2)NC(=O)[C@H](C(C)C)NC(=O)[C@@H]2CCCN2C1=O [Example 577] ({CH2CO}-[Ala(morpholin-4-yl)][Bip(4'-COOH)][Bip(4'-NH)](Benzoyl(3-OCH2COOH))[Sar]PD[dR]IPVHLCG-NH2; thioether N-13) | 50 to 200 nM |  |
| CC[C@H](C)[C@@H]1NC(=O)[C@@H](CCCNC(=N)N)NC(=O)[C@H](CC(=O)O)NC(=O)[C@@H]2CCCN2C(=O)CN(C)C(=O)[C@H](Cc2ccc(-c3ccc(NC(=O)c4cccc(CC(=O)O)c4)cc3)cc2)NC(=O)[C@H](Cc2ccc(-c3ccc(C(=O)O)cc3)cc2)NC(=O)[C@H](CN2CCOCC2)NC(=O)CSC[C@@H](C(=O)NCC(N)=O)NC(=O)[C@H](CC(C)C)NC(=O)[C@H](Cc2cnc[nH]2)NC(=O)[C@H](C(C)C)NC(=O)[C@@H]2CCCN2C1=O [Example 578] ({CH2CO}-[Ala(morpholin-4-yl)][Bip(4'-COOH)][Bip(4'-NHCO-C6H4-3-CH2COOH)][Sar]PD[dR]IPVHLCG-NH2; thioether N-13) | < 50 nM |  |
| CC(C)C[C@@H]1NC(=O)[C@H](Cc2ccc(O)cc2)NC(=O)[C@H](C(C)C)NC(=O)[C@@H]2CCCN2C(=O)[C@H](C(C)C)NC(=O)[C@@H](CCCNC(=N)NCc2ccccc2)NC(=O)[C@H](CC(=O)O)NC(=O)[C@@H]2CCCN2C(=O)CN(C)C(=O)[C@H](Cc2ccc(-c3ccc(NC(=O)c4nn(CC(=O)O)c5ccccc45)cc3)cc2)NC(=O)[C@H](Cc2ccc(-c3ccc(C(=O)O)cc3)cc2)NC(=O)[C@H](CC2CCCCC2)NC(=O)CSC[C@@H](C(=O)NCC(N)=O)NC1=O [Example 579] ({CH2CO}-[Cha][Bip(4'-COOH)][Bip(4'-NH)](Indazole3carbonyl(1-CH2COOH))[Sar]PD[dArg(ω-Bn)]VPVYLCG-NH2; thioether N-13) |  | < 50 nM |
